From ChEMBL document CHEMBL3046558, “Effects of inositol 1,2,6-triphosphate on human liver cancer SMMC-7721 cells” (2012) come the findings set out here.

Calls of active or inactive are those of the source. The calls are words filed in the database; no cut-off is given here.

For assay [1], the system named is SMMC-7721. The assay is described as follows: Inhibition of AFP expression in nucleolus of Homo sapiens (human) SMMC7721 cells […] after 48 hr by immunohistochemistry analysis. It is filed as functional, cell-based.
The subject of assay [2] is SMMC-7721. The assay is described as follows: Cell cycle arrest in Homo sapiens (human) SMMC7721 cells assessed as accumulation at G2/M phase at 100 ug/ml after 3 days using PI staining by flow cytometry (Rvb =11.5 %). It is filed as functional. A general note: In flow cytometry, cells or beads pass a laser one at a time.
The subject of assay [3] is SMMC-7721. Kind of assay: Effect on morphology of Homo sapiens (human) SMMC7721 cells assessed as disruption of cell structure at 300 ug/ml after 48 hr using HE staining by optical microscopy. It is filed as functional, cell-based.
The subject of assay [4] is SMMC-7721. The assay is described as follows: Inhibition of PCNA expression in nucleolus of Homo sapiens (human) SMMC7721 cells […] after 48 hr by immunohistochemistry analysis. It counts as functional, cell-based.
Assay [5] concerns SMMC-7721. Kind of assay: Antiproliferative activity against Homo sapiens (human) SMMC7721 cells at 500 ug/ml after 72 hr by MTT assay. It counts as functional.
For assay [6], the system named is SMMC-7721. The assay is described as follows: Cell cycle arrest in Homo sapiens (human) SMMC7721 cells assessed as accumulation at S phase at 100 ug/ml after 3 days using PI staining by flow cytometry (Rvb =49.5 %). It counts as functional.
The test system of assay [7] is SMMC-7721. The assay is described as follows: Antiproliferative activity against Homo sapiens (human) SMMC7721 cells at 50 to 700 ug/ml by MTT assay. The note with it: TDE = time-dependent effect. It is filed as functional, cell-based. Background: Formazan colour is commonly taken as a measure of viable cells.
Assay [8] deals with SMMC-7721. The assay is described as follows: Antiproliferative activity against Homo sapiens (human) SMMC7721 cells at 300 ug/ml after 72 hr by MTT assay. It counts as functional.
Assay [9] deals with SMMC-7721. The assay is described as follows: Antiproliferative activity against Homo sapiens (human) SMMC7721 cells at 100 ug/ml after 72 hr by MTT assay. It is filed as functional.
Assay [10] concerns SMMC-7721. Kind of assay: Antiproliferative activity against Homo sapiens (human) SMMC7721 cells at 50 ug/ml after 72 hr by MTT assay. It is filed as functional.
The test system of assay [11] is SMMC-7721. The assay is described as follows: Effect on morphology of Homo sapiens (human) SMMC7721 cells assessed as cell detachment from matrix at 300 ug/ml after 48 hr using HE staining by optical microscopy. It counts as functional, cell-based.
Assay [12] relates to SMMC-7721. The assay is described as follows: Antiproliferative activity against Homo sapiens (human) SMMC7721 cells at 700 ug/ml after 72 hr by MTT assay. It counts as functional.
Assay [13] has as its system SMMC-7721. Kind of assay: Antiproliferative activity against Homo sapiens (human) SMMC7721 cells after 1 to 3 days by MTT assay. It counts as functional, cell-based.
Assay [14] relates to SMMC-7721. Kind of assay: Cell cycle arrest in Homo sapiens (human) SMMC7721 cells assessed as accumulation at G2/M phase at 500 ug/ml after 3 days using PI staining by flow cytometry (Rvb =11.5 %). It is filed as functional.
In assay [15] the test system is SMMC-7721. The assay is described as follows: Cell cycle arrest in Homo sapiens (human) SMMC7721 cells assessed as accumulation at G0/G1 phase at 500 ug/ml after 3 days using PI staining by flow cytometry (Rvb =39 %). It is filed as functional.
For assay [16], the system named is SMMC-7721. The assay is described as follows: Cell cycle arrest in Homo sapiens (human) SMMC7721 cells assessed as accumulation at G2/M phase at 300 ug/ml after 3 days using PI staining by flow cytometry (Rvb =11.5 %). It is filed as functional.
Assay [17] relates to SMMC-7721. Kind of assay: Inhibition of AFP expression in cytoplasm of Homo sapiens (human) SMMC7721 cells […] after 48 hr by immunohistochemistry analysis. It is filed as functional, cell-based.
For assay [18], the system named is SMMC-7721. Kind of assay: Cell cycle arrest in Homo sapiens (human) SMMC7721 cells assessed as accumulation at S phase at 500 ug/ml after 3 days using PI staining by flow cytometry (Rvb =49.5 %). It counts as functional.
For assay [19], the system named is SMMC-7721. Kind of assay: Cell cycle arrest in Homo sapiens (human) SMMC7721 cells assessed as accumulation at S phase at 300 ug/ml after 3 days using PI staining by flow cytometry (Rvb =49.5 %). It is filed as functional.
Assay [20] deals with SMMC-7721. The assay is described as follows: Cell cycle arrest in Homo sapiens (human) SMMC7721 cells assessed as accumulation at G0/G1 phase at 300 ug/ml after 3 days using PI staining by flow cytometry (Rvb =39 %). It is filed as functional.
Assay [21] concerns SMMC-7721. Kind of assay: Cell cycle arrest in Homo sapiens (human) SMMC7721 cells assessed as accumulation at G0/G1 phase at 100 ug/ml after 3 days using PI staining by flow cytometry (Rvb =39 %). It counts as functional.

As to `O=P(O)(O)O[C@@H]1[C@H](OP(=O)(O)O)[C@H](O)[C@@H](O)[C@H](O)[C@H]1OP(=O)(O)O` [ATRINOSITOL], the inhibition result in the assay on SMMC-7721 [1], with SMMC-7721 [4] and in the assay on SMMC-7721 [17] was “Dose-dependent effect” throughout. In addition, the Activity was 21.6% in the assay on SMMC-7721 [2]; 67.86% in the assay with SMMC-7721 [5]; 39% in the assay on SMMC-7721 [6]; “tde” in the assay on SMMC-7721 [7]; 59.52% in the assay with SMMC-7721 [8]; 50.85% with SMMC-7721 [9]. Moreover, the Activity with SMMC-7721 [10] was 34.87%; with SMMC-7721 [12], 79.08%; with SMMC-7721 [13], “Dose-dependent effect”; in the assay on SMMC-7721 [14], 19.9%; in the assay with SMMC-7721 [15] it was 68.1%; in the assay with SMMC-7721 [16], 10.6%. Further, the Activity with SMMC-7721 [18] worked out at 12.3%; with SMMC-7721 [19] it was 30.5%; with SMMC-7721 [20] it was 58.9%; in the assay with SMMC-7721 [21] it was 39.4%. Further, the outcome in the assay with SMMC-7721 [3] and in the assay on SMMC-7721 [11] was Active.
